Assays:
[1] = Storage at 40° C./75% RH (elevated humidity) for 1 week, re-analysis by XRPD/HPLC; settings: after 1 week, XRPD
Procedure: The crystalline solids were filtered, dried at ambient conditions, and stored at 40° C./75% RH for 1 week and analyzed by ^1H NMR/IC.
Samples from the screen using amorphous free base Compound 1 were analysed by ^1H-NMR and DSC, and re-analysis by XRPD was also carried out after drying at 50° C./vacuum and storage at 40° C./75% RH (the same sample was dried and stored at elevated humidity).

[2] = Storage at 25° C./93% RH for 1 week, re-analysis by XRPD/HPLC; format: physicochemical; settings: after 1 week, XRPD
[3] = Thermodynamic aqueous solubility; format: physicochemical; settings: at pH 6.47
[4] = Gravimetric vapour sorption (GVS); format: physicochemical
In short: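 Moisture sorption isotherm at 25° C, 0-90% RH in 10% RH steps, 2 scans giving one full cycle, starting from 40% RH. Each step equilibrated 1-4 h until mass within 5% of predicted asymptote; solid re-checked by XRPD afterwards.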

[5] = Drying experiments: heating in an oven at 125° C. for two hours, XRPD; format: physicochemical
[6] = 24 hours
[7] = Free base solubility assessment in 15 solvents (free base Form 1); format: physicochemical
Procedure: Approximately 11 mg (0.022 mmol) portions of the free base Form 1 of Compound 1 (i.e., the compound of formula (I)) were weighed into 2 ml screw-topped HPLC vials. One of 15 solvents was added to each vial in a number of aliquots (up to 100 volumes), with shaking and if necessary with heating to 40° C., in an attempt to achieve dissolution.

[8] = pKa of the basic nitrogen atoms; format: physicochemical; settings: at least two basic nitrogen atoms
[9] = target: PI3K-α (Homo sapiens, UniProt P42336); assay: Kd determination, PI3K-α; format: binding
[10] = Cross species allometric scaling of CL and Vss to humans
Procedure: (§1) For example, Compound 1 bis-hydrogen sulfate monohydrate was evaluated in CD-1 mouse, Wistar rat, Cyno monkey, and Beagle dog. Cross species allometric scaling of CL (drug clearance) and Vss (volume at steady state) predicts low CL, high Vss and long T112 for Compound 1 in humans.

[11] = target: PI3K-β (Homo sapiens, UniProt P42338); assay: Kd determination, PI3K-β; format: binding
[12] = target: PI3K-γ (Homo sapiens, UniProt P48736); assay: Kd determination, PI3K-γ; format: binding
[13] = PK properties in non-clinical animal species (all species); format: in vivo, CD-1 mouse, Wistar rat, Cyno monkey, Beagle dog; settings: non-clinical animal species
Procedure: as §1

[14] = target: PI3K-δ (Homo sapiens, UniProt O00329); assay: Kd determination, PI3K-δ; format: binding
PI3K-δ, sequence (O00329 whole entry): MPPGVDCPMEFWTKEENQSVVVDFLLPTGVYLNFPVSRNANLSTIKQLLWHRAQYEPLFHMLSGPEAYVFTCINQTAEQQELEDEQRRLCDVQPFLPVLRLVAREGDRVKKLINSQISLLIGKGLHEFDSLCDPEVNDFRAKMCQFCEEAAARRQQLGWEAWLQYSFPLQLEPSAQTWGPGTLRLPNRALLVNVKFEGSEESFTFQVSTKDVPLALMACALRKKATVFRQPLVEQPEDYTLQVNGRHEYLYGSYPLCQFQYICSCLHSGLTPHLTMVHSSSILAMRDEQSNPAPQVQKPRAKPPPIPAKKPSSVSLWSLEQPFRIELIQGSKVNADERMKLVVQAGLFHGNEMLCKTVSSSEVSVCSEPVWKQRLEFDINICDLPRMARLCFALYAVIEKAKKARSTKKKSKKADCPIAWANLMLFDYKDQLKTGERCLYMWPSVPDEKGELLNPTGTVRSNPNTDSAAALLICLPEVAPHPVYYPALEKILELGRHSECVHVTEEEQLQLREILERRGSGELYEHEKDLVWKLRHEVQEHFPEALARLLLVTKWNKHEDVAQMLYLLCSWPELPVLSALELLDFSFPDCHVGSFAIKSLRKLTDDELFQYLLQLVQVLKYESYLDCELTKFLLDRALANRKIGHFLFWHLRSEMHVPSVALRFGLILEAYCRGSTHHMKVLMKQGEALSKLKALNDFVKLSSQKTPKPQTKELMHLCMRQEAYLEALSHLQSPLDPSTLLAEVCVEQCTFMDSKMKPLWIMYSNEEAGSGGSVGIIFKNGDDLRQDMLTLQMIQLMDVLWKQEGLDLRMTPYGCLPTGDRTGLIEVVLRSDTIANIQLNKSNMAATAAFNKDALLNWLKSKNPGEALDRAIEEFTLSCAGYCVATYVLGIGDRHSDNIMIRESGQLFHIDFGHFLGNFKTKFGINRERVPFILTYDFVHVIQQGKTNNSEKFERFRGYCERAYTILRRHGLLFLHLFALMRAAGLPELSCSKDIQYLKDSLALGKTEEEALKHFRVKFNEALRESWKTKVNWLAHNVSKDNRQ
PI3K-δ, sequence (P27986 whole entry partner): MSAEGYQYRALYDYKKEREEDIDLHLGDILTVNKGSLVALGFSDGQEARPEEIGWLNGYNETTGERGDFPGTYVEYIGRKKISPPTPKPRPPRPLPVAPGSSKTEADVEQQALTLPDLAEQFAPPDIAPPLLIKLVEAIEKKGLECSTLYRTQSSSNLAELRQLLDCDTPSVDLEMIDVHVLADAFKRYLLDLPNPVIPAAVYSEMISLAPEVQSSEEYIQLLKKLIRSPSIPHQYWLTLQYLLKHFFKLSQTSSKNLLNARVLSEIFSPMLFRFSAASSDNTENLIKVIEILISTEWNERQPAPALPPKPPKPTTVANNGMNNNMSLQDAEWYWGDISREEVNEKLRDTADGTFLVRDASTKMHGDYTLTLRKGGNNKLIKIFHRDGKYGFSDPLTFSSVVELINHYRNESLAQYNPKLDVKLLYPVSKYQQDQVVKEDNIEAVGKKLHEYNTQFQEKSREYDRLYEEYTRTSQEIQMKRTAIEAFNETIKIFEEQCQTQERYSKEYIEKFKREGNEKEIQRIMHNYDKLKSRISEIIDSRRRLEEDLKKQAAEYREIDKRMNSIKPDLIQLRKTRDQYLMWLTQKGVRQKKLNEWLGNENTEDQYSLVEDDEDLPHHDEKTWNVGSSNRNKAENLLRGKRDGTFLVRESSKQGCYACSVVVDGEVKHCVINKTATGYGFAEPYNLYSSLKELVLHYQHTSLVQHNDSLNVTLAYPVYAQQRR

PI3K-γ, sequence (P48736 whole entry): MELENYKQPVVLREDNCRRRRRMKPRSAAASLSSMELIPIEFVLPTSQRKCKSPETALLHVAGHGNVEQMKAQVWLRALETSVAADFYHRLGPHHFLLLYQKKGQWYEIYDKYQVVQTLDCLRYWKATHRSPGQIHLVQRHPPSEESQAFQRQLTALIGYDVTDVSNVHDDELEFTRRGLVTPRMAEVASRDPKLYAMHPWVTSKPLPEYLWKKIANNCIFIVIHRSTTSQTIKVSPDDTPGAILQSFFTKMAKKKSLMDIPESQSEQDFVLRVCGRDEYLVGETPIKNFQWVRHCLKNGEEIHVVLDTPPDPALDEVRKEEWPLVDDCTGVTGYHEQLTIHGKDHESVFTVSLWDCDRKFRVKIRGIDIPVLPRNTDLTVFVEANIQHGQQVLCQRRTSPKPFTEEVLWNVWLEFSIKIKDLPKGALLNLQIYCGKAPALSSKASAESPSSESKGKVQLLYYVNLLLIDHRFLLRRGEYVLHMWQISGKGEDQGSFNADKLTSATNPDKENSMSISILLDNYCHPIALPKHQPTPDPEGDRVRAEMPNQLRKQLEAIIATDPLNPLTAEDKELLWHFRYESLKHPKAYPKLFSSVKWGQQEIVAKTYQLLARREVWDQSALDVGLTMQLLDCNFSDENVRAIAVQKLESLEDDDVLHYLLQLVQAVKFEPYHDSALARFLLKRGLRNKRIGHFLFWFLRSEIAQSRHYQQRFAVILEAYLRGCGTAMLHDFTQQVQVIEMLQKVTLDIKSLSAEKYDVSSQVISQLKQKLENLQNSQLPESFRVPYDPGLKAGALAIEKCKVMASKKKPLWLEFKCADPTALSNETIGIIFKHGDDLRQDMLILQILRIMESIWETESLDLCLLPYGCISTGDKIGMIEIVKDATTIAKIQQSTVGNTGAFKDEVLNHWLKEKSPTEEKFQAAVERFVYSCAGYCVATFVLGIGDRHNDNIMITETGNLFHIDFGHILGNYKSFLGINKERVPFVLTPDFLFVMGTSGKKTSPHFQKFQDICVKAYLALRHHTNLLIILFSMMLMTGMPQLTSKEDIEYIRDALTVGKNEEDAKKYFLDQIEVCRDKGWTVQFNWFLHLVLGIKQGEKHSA
PI3K-β, sequence (P42338 whole entry): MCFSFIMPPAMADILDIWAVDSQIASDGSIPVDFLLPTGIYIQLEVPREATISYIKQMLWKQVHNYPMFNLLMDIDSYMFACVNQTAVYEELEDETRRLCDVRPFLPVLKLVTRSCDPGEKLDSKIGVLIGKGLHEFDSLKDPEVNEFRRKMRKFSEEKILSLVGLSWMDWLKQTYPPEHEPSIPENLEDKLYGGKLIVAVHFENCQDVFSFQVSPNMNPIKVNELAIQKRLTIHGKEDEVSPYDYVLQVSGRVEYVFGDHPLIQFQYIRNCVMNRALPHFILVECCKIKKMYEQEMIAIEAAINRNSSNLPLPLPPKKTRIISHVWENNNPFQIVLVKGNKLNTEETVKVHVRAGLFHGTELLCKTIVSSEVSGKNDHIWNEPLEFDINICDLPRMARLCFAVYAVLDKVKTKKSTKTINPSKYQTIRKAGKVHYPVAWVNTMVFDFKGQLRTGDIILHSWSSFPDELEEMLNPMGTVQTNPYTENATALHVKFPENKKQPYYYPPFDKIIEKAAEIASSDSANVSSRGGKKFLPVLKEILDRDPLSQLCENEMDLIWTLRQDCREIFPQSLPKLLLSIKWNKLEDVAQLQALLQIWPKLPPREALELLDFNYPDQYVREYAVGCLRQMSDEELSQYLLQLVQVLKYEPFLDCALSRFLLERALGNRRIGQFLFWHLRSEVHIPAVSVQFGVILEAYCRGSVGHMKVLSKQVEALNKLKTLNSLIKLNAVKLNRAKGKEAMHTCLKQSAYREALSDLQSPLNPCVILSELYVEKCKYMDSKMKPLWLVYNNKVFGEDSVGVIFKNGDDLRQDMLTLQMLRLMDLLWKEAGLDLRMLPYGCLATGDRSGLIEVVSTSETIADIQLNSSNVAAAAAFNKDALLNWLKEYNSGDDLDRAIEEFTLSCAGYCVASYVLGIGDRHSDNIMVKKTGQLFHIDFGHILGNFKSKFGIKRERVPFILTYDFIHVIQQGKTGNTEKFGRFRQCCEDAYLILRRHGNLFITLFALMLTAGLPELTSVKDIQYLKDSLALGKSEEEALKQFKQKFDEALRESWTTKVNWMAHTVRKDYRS
PI3K-β, sequence (P27986 whole entry partner): as the sequence (P27986 whole entry partner) above
PI3K-α, sequence (P42336 whole entry): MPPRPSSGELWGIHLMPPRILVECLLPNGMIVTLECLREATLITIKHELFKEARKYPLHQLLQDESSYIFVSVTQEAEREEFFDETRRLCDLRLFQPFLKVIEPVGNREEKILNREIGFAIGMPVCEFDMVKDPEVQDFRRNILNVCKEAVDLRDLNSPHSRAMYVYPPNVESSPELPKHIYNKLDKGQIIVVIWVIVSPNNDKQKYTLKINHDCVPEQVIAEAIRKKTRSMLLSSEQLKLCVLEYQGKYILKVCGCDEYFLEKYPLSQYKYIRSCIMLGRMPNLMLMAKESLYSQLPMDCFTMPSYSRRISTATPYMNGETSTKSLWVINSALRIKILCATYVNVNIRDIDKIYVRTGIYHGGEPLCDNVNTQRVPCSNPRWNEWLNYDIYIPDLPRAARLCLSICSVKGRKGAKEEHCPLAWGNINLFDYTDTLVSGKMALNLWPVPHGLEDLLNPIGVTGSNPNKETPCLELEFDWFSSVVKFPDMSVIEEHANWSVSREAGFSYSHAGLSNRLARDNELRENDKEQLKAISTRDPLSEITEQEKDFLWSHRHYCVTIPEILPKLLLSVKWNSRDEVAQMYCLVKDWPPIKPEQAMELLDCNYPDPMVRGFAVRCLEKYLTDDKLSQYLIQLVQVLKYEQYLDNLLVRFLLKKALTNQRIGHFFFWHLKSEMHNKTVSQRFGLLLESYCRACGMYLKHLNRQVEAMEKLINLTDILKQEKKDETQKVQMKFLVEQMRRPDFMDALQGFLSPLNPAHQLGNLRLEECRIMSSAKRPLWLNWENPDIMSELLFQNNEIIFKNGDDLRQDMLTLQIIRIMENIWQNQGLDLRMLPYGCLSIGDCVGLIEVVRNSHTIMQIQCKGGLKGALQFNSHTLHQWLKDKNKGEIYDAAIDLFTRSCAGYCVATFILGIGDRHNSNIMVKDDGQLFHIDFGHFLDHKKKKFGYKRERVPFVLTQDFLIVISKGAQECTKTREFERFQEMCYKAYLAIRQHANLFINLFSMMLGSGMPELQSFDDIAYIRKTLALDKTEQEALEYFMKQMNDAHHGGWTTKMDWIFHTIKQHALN
PI3K-α, sequence (P27986 whole entry partner): as the sequence (P27986 whole entry partner) above

COc1cc(-c2cccc3cc([C@H](C)Nc4nc(N)ncc4C#N)n(-c4ccccc4)c(=O)c23)ccn1.O [Compound 1 Free Base Form 2]
Stability at 40° C./75% RH [1]: Very slight changes after 1 week | Stability at 25° C./93% RH [2]: Very slight changes after 1 week | Thermodynamic aqueous solubility [3]: 0.005 mg/mL, at pH 6.47 | GVS: immediate moisture uptake, up to ([4]; 40-50% RH, stable on sorption up to 90% RH and desorption down to 10% RH): uptake (40-50% RH up to 5.7% w/w) which remains | GVS: moisture on loading ([4]; loaded at 40% RH, 25° C.): 4.7% w/w moisture on loading. Immediate moisture | GVS: XRPD after the experiment ([4]; re-analysis by XRPD after GVS): 40% RH. Slight changes by XRPD after the experiment. | Drying experiments: changes by XRPD [5]: very slight changes by XRPD

COc1cc(-c2cccc3cc([C@H](C)Nc4nc(N)ncc4C#N)n(-c4ccccc4)c(=O)c23)ccn1
crystallinity after standing at RT [6]: decreases

COc1cc(-c2cccc3cc([C@H](C)Nc4nc(N)ncc4C#N)n(-c4ccccc4)c(=O)c23)ccn1 [Compound 1, (S)-2-amino-4-((1-(8-(2-methoxypyridin-4-yl)-1-oxo-2-phenyl-1,2-dihydroisoquinolin-3-yl)ethyl)amino)pyrimidine-5-carbonitrile]
volumes of solvent in which Compound 1 dissolved ([7]; 2-MeTHF): 50 vol. | volumes of solvent in which Compound 1 dissolved ([7]; DMSO): 5 vol. | volumes of solvent in which Compound 1 did not dissolve ([7]; EtOAC): > 100 vol. | volumes of solvent in which Compound 1 did not dissolve ([7]; EtOH): > 100 vol. | volumes of solvent in which Compound 1 did not dissolve ([7]; EtOH/H2O): > 100 vol. | volumes of solvent in which Compound 1 did not dissolve ([7]; H2O): > 100 vol. | volumes of solvent in which Compound 1 dissolved ([7]; MIBK): 40 vol. | volumes of solvent in which Compound 1 dissolved ([7]; MeOH, shaking, if necessary heating to 40° C.): 75 vol. | volumes of solvent in which Compound 1 dissolved ([7]; MeOH/anisole (50/50 v/v)): 10 vol. | volumes of solvent in which Compound 1 did not dissolve ([7]; TBME): > 100 vol. | volumes of solvent in which Compound 1 dissolved ([7]; THF): 40 vol. | volumes of solvent in which Compound 1 did not dissolve ([7]; acetone): > 100 vol. | volumes of solvent in which Compound 1 did not dissolve ([7]; acetonitrile): > 100 vol. | volumes of solvent in which Compound 1 did not dissolve ([7]; anisole): > 100 vol. | volumes of solvent in which Compound 1 dissolved ([7]; chloroform): 40 vol. | pKa [8]: ~3.5 | koff [9]: 0.053 s⁻¹ | kon [9]: 5.43e+06 M⁻¹ s⁻¹ | Kd ([9]; read-out: KD = koff/kon): 9.76 nM | CL (drug clearance) predicted in humans ([10]; allometric scaling): low | T112 predicted in humans ([10]; allometric scaling): long | Vss (volume at steady state) predicted in humans ([10]; allometric scaling): high | Forai in humans ([10]; suggested by oral bioavailability in animals): good | koff [11]: 0.0126 s⁻¹ | kon [11]: 2.03e+06 M⁻¹ s⁻¹ | Kd ([11]; read-out: KD = koff/kon): 6.24 nM | koff [12]: 0.000188 s⁻¹ | kon [12]: 1.65e+06 M⁻¹ s⁻¹ | Kd ([12]; read-out: KD = koff/kon): 0.114 nM | oral bioavailability [13]: Good oral bioavailability | koff [14]: 0.000252 s⁻¹ | kon [14]: 8.23e+06 M⁻¹ s⁻¹ | Kd ([14]; read-out: KD = koff/kon): 0.0306 nM
